Reference: PMC12257397, “Scaffold Hopping Strategy toward New 4‑Aminoquinazolines Active Against Extracellular and Intracellular Mycobacterium tuberculosis” (ACS Medicinal Chemistry Letters, 2025)
≈ marks a conversion by molar mass, not a printed value.

Legend:
[1] = tested on: M. tuberculosis LP-0106898-RM1 (QcrB T313I); assay type: cell-based, Mycobacterium tuberculosis
[2] = tested on: M. tuberculosis LP-0497754-RM301, MmpL3 triple mutant (F255L, V646M, F644I); assay type: cell-based, Mycobacterium tuberculosis
[3] = tested on: M. tuberculosis QcrB T313I; conditions: given in Figure 1A; cited from earlier work
[4] = tested on: M. tuberculosis QcrB M342T; conditions: given in Figure 1A; cited from earlier work
[5] = tested on: M. tuberculosis qcrCAB (A178T); conditions: given in Figure 1A; cited from earlier work

Row | Structure (SMILES) | MIC QcrBT313I [1] [µM] | MIC MmpL3 (F255L, V646M, F644I) [2] [µM] | MIC QcrB T313I [3] [µM] | MIC QcrB M342T [4] [µM] | IC50 [5] [nM]
1 | Cc1nc(NCCc2ccc3ccccc3c2)c2cc(Br)ccc2n1 [17c] | 2.2 (≈ 0.863 µg/mL) | 2.6 (≈ 1.02 µg/mL) | – | – | –
2 | Cc1ccc(CCNc2nc(C)nc3ccc(I)cc23)cc1 [15d] | 0.70 (≈ 0.282 µg/mL) | 0.89 (≈ 0.359 µg/mL) | – | – | –
3 | CCc1ccc(CCNc2nc(C)nc3ccc(Br)cc23)cc1 [16c] | 2.4 (≈ 0.889 µg/mL) | 3.4 (≈ 1.26 µg/mL) | – | – | –
4 | Cc1nc(NCCc2ccc(OC(F)(F)F)cc2)c2cc(Br)ccc2n1 [13c] | 4.0 (≈ 1.7 µg/mL) | 5.4 (≈ 2.3 µg/mL) | – | – | –
5 | Cc1nc(NCCCc2ccccc2)c2ccccc2n1 [18a] | 1.0 (≈ 0.277 µg/mL) | 1.2 (≈ 0.333 µg/mL) | – | – | –
6 | Cc1nc(NCCc2ccc3ccccc3c2)c2cc(I)ccc2n1 [17d] | 1.2 (≈ 0.527 µg/mL) | 1.4 (≈ 0.615 µg/mL) | – | – | –
7 | Cc1nc(NCCCc2ccccc2)c2cc(I)ccc2n1 [18d] | 0.48 (≈ 0.194 µg/mL) | 0.64 (≈ 0.258 µg/mL) | – | – | –
8 | Cc1nc(NCCc2ccc(Cl)cc2)c2cc(I)ccc2n1 [11d] | 0.80 (≈ 0.339 µg/mL) | 1.0 (≈ 0.424 µg/mL) | – | – | –
9 | FC(F)(F)c1ccc(CCNc2cc(-c3ccccn3)nc3ncnn23)cc1 [1 (TAP)] | – | – | > 20 | 10 (≈ 3.84 µg/mL) | –
10 | Cc1nc(NCCc2ccc(OC(F)(F)F)cc2)c2cc(I)ccc2n1 [13d] | 5.2 (≈ 2.46 µg/mL) | 8.3 (≈ 3.93 µg/mL) | – | – | –
11 | Cc1nc(NCCCc2ccccc2)c2cc(Br)ccc2n1 [18c] | <0.19 | < 0.19 | – | – | –
12 | CO[C@H]1/C=C/O[C@@]2(C)Oc3c(C)c(O)c4c(O)c(c(/C=N/N5CCN(C)CC5)c(O)c4c3C2=O)NC(=O)/C(C)=C\C=C\[C@H](C)[C@H](O)[C@@H](C)[C@@H](O)[C@@H](C)[C@H](OC(C)=O)[C@@H]1C [20 (RIF), rifampicin, reference compound] | 0.010 (≈ 0.00823 µg/mL) | 0.030 (≈ 0.0247 µg/mL) | – | – | –
13 | COc1ccc2nc(C)nc(NCCCc3ccccc3)c2c1 [18b] | 1.3 (≈ 0.4 µg/mL) | 1.5 (≈ 0.461 µg/mL) | – | – | –
14 | COc1ccc(CCNc2nc(C)nc3ccc(I)cc23)cc1 [10d] | 1.2 (≈ 0.503 µg/mL) | 1.5 (≈ 0.629 µg/mL) | – | – | –
15 | Cc1nc(NCCc2ccccc2)c2cc(I)ccc2n1 [9d] | 0.67 (≈ 0.261 µg/mL) | 0.89 (≈ 0.346 µg/mL) | – | – | –
16 | CCc1nc(NCCCc2ccccc2)c2cc(C)sc2n1 [3 (CWHM-1023)] | – | – | – | – | > 500
17 | c1ccc(CCCNc2ncnc3ccccc23)cc1 [18e] | 29.0 (≈ 7.64 µg/mL) | 39.0 (≈ 10.3 µg/mL) | – | – | –
18 | CCc1nc2ccc(C)cc2n1CCCNc1ccccc1 [2 (FABA)] | – | – | 8.7 (≈ 2.55 µg/mL) | 4.1 (≈ 1.2 µg/mL) | –
19 | CCc1ccc(CCNc2nc(C)nc3ccc(I)cc23)cc1 [16d] | 1.8 (≈ 0.751 µg/mL) | 2.3 (≈ 0.96 µg/mL) | – | – | –
